From PubChem BioAssay AID602165 (The Scripps Research Institute Molecular Screening Center, 2012)
pIC50: −log10 of the molar value.

Molecular target: Induced myeloid leukemia cell differentiation protein Mcl-1 (Homo sapiens) (UniProt Q07820)
Experiment: MCL1 binding to BIM-BH3 peptide, inhibitors, late-stage follow-up, biochemical, fluorescence polarization, assay provider data, round 3 (AID 602165)
Conditions: GST-MCL1 / FITC-BIM-BH3 peptide fluorescence polarization

Sequence of Induced myeloid leukemia cell differentiation protein Mcl-1 (Homo sapiens) (Q07820 whole entry, looked up): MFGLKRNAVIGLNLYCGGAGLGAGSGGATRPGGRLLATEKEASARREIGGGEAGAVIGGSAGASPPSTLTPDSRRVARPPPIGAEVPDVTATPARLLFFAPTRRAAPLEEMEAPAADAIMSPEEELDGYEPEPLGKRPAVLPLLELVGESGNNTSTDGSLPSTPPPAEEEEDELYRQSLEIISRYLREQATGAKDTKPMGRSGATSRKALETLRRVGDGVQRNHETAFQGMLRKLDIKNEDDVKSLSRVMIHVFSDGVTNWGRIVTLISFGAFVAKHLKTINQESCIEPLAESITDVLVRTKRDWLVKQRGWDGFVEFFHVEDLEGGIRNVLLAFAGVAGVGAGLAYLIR

| SMILES | pIC50 |
| --- | --- |
| Oc1c(C(c2cccs2)N2CCCCC2)ccc2cccnc12 (stereo not drawn) | 5.60 |
| CCN1CCN(C(c2cccs2)c2ccc3cccnc3c2O)CC1 (stereo not drawn) | 5.80 |
| Oc1c(C(Nc2ccccn2)c2cccs2)ccc2cccnc12 (stereo not drawn) | 6.22 |
| OCCN1CCN(C(c2cccs2)c2ccc3cccnc3c2O)CC1 (stereo not drawn) | 5.48 |
| Cc1ccnc(NC(c2cccs2)c2ccc3cccnc3c2O)c1 (stereo not drawn) | 6.40 |
| CC(C)Oc1ccc(C(Nc2ccccn2)c2ccc3cccnc3c2O)cc1 (stereo not drawn) | 5.89 |
| CN1CCN(C(c2ccc(F)cc2)c2ccc3cccnc3c2O)CC1 (stereo not drawn) | 6.22 |
| Oc1c(C(c2cccs2)N2CCN(c3ccccn3)CC2)ccc2cccnc12 (stereo not drawn) | 6.30 |
